Experimental data taken from ChEMBL document CHEMBL1201862, “PubChem BioAssay data set” (2004).
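Exposure lasted 48 hours, with cells grown in 96-well plates and compounds tested at five concentrations. The concentration for 50% growth inhibition is given as GI50.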 The source made the active and inactive calls. Rule as the data show it: active = GI50 up to about 1.1 µM and inactive = higher.

Key:
Assay in all cases: inhibition of tumour cell growth, NCI panel, 48 h
786-0 = test system: 786-0
A498 = test system: A498
HCT-15 = test system: HCT-15
HL-60 = test system: HL-60
Hs-578T = test system: Hs-578T
K562 = test system: K562
LOX IMVI = test system: LOX IMVI
MCF7 = test system: MCF7
MDA-MB-231 = test system: MDA-MB-231
NCI/ADR-RES = test system: NCI/ADR-RES
RXF 393 = test system: RXF 393
SF-295 = test system: SF-295
SF-539 = test system: SF-539
SK-OV-3 = test system: SK-OV-3
SN12C = test system: SN12C
SW-620 = test system: SW-620
T47D = test system: T47D
U-251 = test system: U-251

SMILES | GI50 (786-0) | GI50 (A498) | GI50 (HCT-15) | GI50 (HL-60) | GI50 (Hs-578T) | GI50 (K562) | GI50 (LOX IMVI) | GI50 (MCF7) | GI50 (MDA-MB-231) | GI50 (NCI/ADR-RES) | GI50 (RXF 393) | GI50 (SF-295) | GI50 (SF-539) | GI50 (SK-OV-3) | GI50 (SN12C) | GI50 (SW-620) | GI50 (T47D) | GI50 (U-251)
COc1cc(N(C)C)c(OC)cc1/C=C\c1ccnc2ccccc12 | 4.49 µM (inactive) | 3.1 µM (inactive) | 0.652 µM | 3.7 µM (inactive) | 3.25 µM (inactive) | 4.01 µM (inactive) | 0.746 µM (active) | 0.462 µM (active) | 2.8 µM (inactive) | 2.56 µM (inactive) | > 10 µM (inactive) | 2.86 µM (inactive) | 2.33 µM (inactive) | > 10 µM (inactive) | 6.32 µM (inactive) | 4.68 µM (inactive) | 0.344 µM (active) | 5.04 µM (inactive)
O=[N+]([O-])/C=C/c1cn(CCCCCn2cc(/C=C/[N+](=O)[O-])c3ccccc32)c2ccccc12 | 0.392 µM (active) | 1.94 µM (inactive) | 2.17 µM | 0.787 µM (active) | 1.87 µM (inactive) | 0.83 µM (active) | 0.611 µM (active) | 0.408 µM (active) | 1.95 µM (inactive) | 10.2 µM (inactive) | 0.582 µM (active) | 9.89 µM (inactive) | 1.88 µM (inactive) | 23.2 µM (inactive) | 3.16 µM (inactive) | 0.682 µM (active) | 8.22 µM (inactive) | 1.61 µM (inactive)
COc1ccc2c3c([nH]c2c1)CCN(CCCC(=O)c1ccc(F)cc1)C3 | 14.1 µM (inactive) | 16 µM (inactive) | 20.1 µM | 15 µM (inactive) | 6.56 µM (inactive) | 16.6 µM (inactive) | 12.7 µM (inactive) | 17.3 µM (inactive) | 15.8 µM (inactive) | 18.6 µM (inactive) | 14.2 µM (inactive) | 15.7 µM (inactive) | 9.89 µM (inactive) | 19.4 µM (inactive) | 15.9 µM (inactive) | 17 µM (inactive) | 19 µM (inactive) | 17.2 µM (inactive)
O=C(Sc1c(-c2ccccc2)c(=O)n(-c2ccccc2)c(=S)n1-c1ccccc1)c1ccco1 | > 100 µM (inactive) | > 100 µM (inactive) | > 89.1 µM | 21.5 µM (inactive) | > 73.5 µM (inactive) | 34 µM (inactive) | > 100 µM (inactive) | > 100 µM (inactive) | > 100 µM (inactive) | > 100 µM (inactive) | > 100 µM (inactive) | > 100 µM (inactive) | > 100 µM (inactive) | > 100 µM (inactive) | > 100 µM (inactive) | > 57.5 µM (inactive) | > 100 µM (inactive) | > 100 µM (inactive)
COc1ccc(NC2=CC(=O)C(=O)c3ccccc32)nn1 | 1.86 µM (inactive) | 1.73 µM (inactive) | 0.423 µM | 0.273 µM (active) | 1.99 µM (inactive) | 0.224 µM (active) | 1.66 µM (inactive) | 0.557 µM (active) | 3.69 µM (inactive) | 0.514 µM (active) | 1.36 µM (inactive) | 0.822 µM (active) | 0.902 µM (active) | 2.17 µM (inactive) | 1.6 µM (inactive) | 1.29 µM (inactive) | 3.4 µM (inactive) | 1.52 µM (inactive)
CCOC(CNCCC(=O)OC)OCC | > 10 µM (inactive) | > 10 µM (inactive) | > 10 µM | > 10 µM (inactive) | > 10 µM (inactive) | > 10 µM (inactive) | > 10 µM (inactive) | > 10 µM (inactive) | > 10 µM (inactive) | > 10 µM (inactive) | > 10 µM (inactive) | > 10 µM (inactive) | > 10 µM (inactive) | > 10 µM (inactive) | > 10 µM (inactive) | > 10 µM (inactive) | > 10 µM (inactive) | > 10 µM (inactive)
CC(=O)Nc1c(C)cc2c(nc3n2CCC3OC(C)=O)c1[N+](=O)[O-] (stereo not drawn) | > 100 µM (inactive) | > 100 µM (inactive) | > 100 µM | > 100 µM (inactive) | > 100 µM (inactive) | > 100 µM (inactive) | > 100 µM (inactive) | > 100 µM (inactive) | > 100 µM (inactive) | > 100 µM (inactive) | 7.98 µM (inactive) | > 100 µM (inactive) | > 100 µM (inactive) | > 100 µM (inactive) | > 100 µM (inactive) | > 100 µM (inactive) | > 100 µM (inactive) | > 100 µM (inactive)
S=C1Cc2cc3ccccc3nc2-c2ccccc2N1 | 12.6 µM (inactive) | 6.31 µM (inactive) | 42.3 µM | > 100 µM (inactive) | 5.64 µM (inactive) | > 100 µM (inactive) | 33.4 µM (inactive) | 38.9 µM (inactive) | 10.4 µM (inactive) | 10.1 µM (inactive) | 8.65 µM (inactive) | 22.7 µM (inactive) | 12.6 µM (inactive) | 5.68 µM (inactive) | 16.7 µM (inactive) | 37 µM (inactive) | 8.3 µM (inactive) | 13.7 µM (inactive)
O=[N+]([O-])C(=C(\Cl)NCCO)/C(Cl)=C(/Cl)Br | 1.19 µM (inactive) | 4.66 µM (inactive) | 1.32 µM | 0.791 µM (active) | 6 µM (inactive) | 0.665 µM (active) | 0.885 µM (active) | 0.716 µM (active) | 1.74 µM (inactive) | 2.34 µM (inactive) | 2.6 µM (inactive) | 12.1 µM (inactive) | 2.34 µM (inactive) | 15 µM (inactive) | 1.98 µM (inactive) | 1.17 µM (inactive) | 1.74 µM (inactive) | 2.04 µM (inactive)
C[C@H](CCC(=O)O)[C@H]1CC[C@H]2[C@@H]3[C@H](O)C[C@@H]4C[C@H](O)CC[C@]4(C)[C@H]3C[C@H](O)[C@]12C | > 100 µM (inactive) | > 100 µM (inactive) | > 100 µM | > 100 µM (inactive) | > 100 µM (inactive) | > 100 µM (inactive) | > 100 µM (inactive) | > 100 µM (inactive) | > 100 µM (inactive) | > 100 µM (inactive) | > 100 µM (inactive) | > 100 µM (inactive) | > 100 µM (inactive) | > 100 µM (inactive) | > 100 µM (inactive) | > 100 µM (inactive) | > 100 µM (inactive) | > 100 µM (inactive)
O=C(O)c1ccc(C(c2c(O)oc3ccccc3c2=O)c2c(O)oc3ccccc3c2=O)cc1 | > 100 µM (inactive) | 2.92 µM (inactive) | > 100 µM | 0.0397 µM (active) | 5 µM (inactive) | 15.5 µM (inactive) | > 100 µM (inactive) | > 100 µM (inactive) | > 100 µM (inactive) | > 100 µM (inactive) | > 100 µM (inactive) | > 100 µM (inactive) | > 100 µM (inactive) | > 100 µM (inactive) | > 100 µM (inactive) | > 100 µM (inactive) | > 100 µM (inactive) | > 100 µM (inactive)
